Measured values from patent publication US10766928B2, “Targeted conformationally-constrained kinked endosomal disrupting peptides” (priority 2012, dated 2020).
Converted amounts (≈) assume the structure as drawn. Read-outs that look alike come from different tables or passages of the source. Non-standard residues stand in square brackets, D forms with d. Residues, ends and D or L forms follow the SMILES beside them. *: point of attachment. Pentanoyl(5-NH-cholesteryl) = CC(C)CCC[C@@H](C)[C@H]1CC[C@H]2[C@@H]3CC=C4C[C@@H](NCCCCC(=O)*)CC[C@]4(C)[C@H]3CC[C@]12C; Cholesteryloxycarbonyl = CC(C)CCC[C@@H](C)[C@H]1CC[C@H]2[C@@H]3CC=C4C[C@@H](OC(=O)*)CC[C@]4(C)[C@H]3CC[C@]12C; Palmitoyl = CCCCCCCCCCCCCCCC(=O)*; PEG3 = NCCOCCOCCOCCC(=O)O; Pra = C#CC[C@H](N)C(=O)O; Aib = CC(C)(N)C(=O)O; Ava = NCCCCC(=O)O; βAla = NCCC(=O)O

Tests used:
[1] = Thermodynamic solubility in PBS (pH 7.4); assay type: physicochemical; settings: for solubility at 24 h / solubility thermodynamic at 24 h: phosphate buffered saline, read-out: Solubility (aq.); for solubility at 24 h / Solubility (aq., μM): Table 1; for solubility at 24 h / solubility thermodynamic at 24 h / Solubility (aq., μM): PBS pH 7.4, 24 hours at 22° C., ±S.D.; for solubility thermodynamic at 24 h: pH 7.4, Table 1
Excerpt: Values in parentheses represent 95% confidence intervals. N.D., not determined.
Measurements represent duplicate or more replicates, with active peptides subjected to multiple replicates. ND: not determined. The peptide was non-toxic and soluble in cell culture medium at this concentration.

[2] = test system: endosomes of Jurkat lymphocytes; assay: Endosome disruption in Jurkat lymphocytes: release of carboxyfluorescein from disulfide probe Compound 2, flow cytometry
Outline: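 Human Jurkat cells treated with compounds plus disulfide probe Compound 2 (2.5 μM) for 14 h at 37 °C. Cytoplasmic release of pH-sensitive fluorophore Compound 3 quantified by flow cytometry. IC50 by non-linear regression; efficacy as % fluorescence change relative to Compound 1 maximum (100%).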

Jurkat lymphocytes = test system: Jurkat lymphocytes
Description: The effects of the compounds of the invention on human Juikat leukemia cells were evaluated using flow cytometry-based assays of potency, efficacy, and toxicity. […] Analysis of flow cytometry data by non-linear regression was used to determine IC50 values for potency with the efficacy expressed as a percentage. […] Dose-dependent effects on cellular viability after 48 h at 37° C. in culture were also measured by flow cytometry.
The # represents the compound number in accordance with Tables A, B, and C. Concentrations of compound stock solutions were determined by absorbance measurements at 280 nm. Efficacy was determined as % change in cellular fluorescence relative to the maximal response of Compound 1, defined as 100%. Potencies and efficacies in Jurkat lymphocytes were measured by flow cytometry after treatment of cells with the compounds listed and the fluorescent probe Compound 2 (2.5 μM) for 14 hours. Toxicity to this cell line was determined by flow cytometry analysis of light scattering and counterstaining with PI after treatment for 48 h at 37° C. in culture. […] N.D., not determined.

SMILES	solubility at 24 h [1] [µM]	EC50 ([2]; 14 h) [nM]	IC50 (Jurkat lymphocytes; 48 h) [nM]	solubility thermodynamic at 24 h [1] [µM]	Solubility (aq., μM) [1] [µM]	Solubility in PBS relative to Compound 26 ([1]; PBS)	Efficacy (% of max. 1) ([2]; Table 1, % change in cellular fluorescence relative to maximal response of Compound 1 (100%), Jurkat, 14 hours) [%]	Potency relative to Compound 26 ([2]; palmitic acid derivative vs cholesterylamine)	EC50 ([2]; read-out: Potency (EC50), Table 1, Jurkat lymphocytes, probe Compound 2 (2.5 μM), 14 hours, 95% confidence interval in neighbouring cell) [nM]	IC50 (Jurkat lymphocytes; read-out: Toxicity (IC50), Table 1, Jurkat lymphocytes, 48 h at 37° C.) [nM]
CC(C)CCC[C@@H](C)[C@H]1CC[C@H]2[C@@H]3CC=C4C[C@@H](NCCCCC(=O)NCCC(=O)N[C@@H](CCC(=O)O)C(=O)N[C@@H](CCC(=O)O)C(=O)NCCOCCOCCOCCC(=O)NCCOCCOCCOCCC(=O)NC(C)(C)C(=O)NC(C)(C)C(=O)NC(C)(C)C(=O)NC(C)(C)C(=O)N[C@@H](Cc5c[nH]c6ccccc56)C(=O)N[C@@H](Cc5c[nH]c6ccccc56)C(=O)N[C@@H](C)C(=O)N[C@@H](Cc5ccc(O)cc5)C(=O)N[C@@H](Cc5c[nH]c6ccccc56)C(=O)N5CCC[C@H]5C(=O)N5CCC[C@H]5C(=O)N[C@H](C(=O)N[C@@H](C)C(N)=O)C(C)C)CC[C@]4(C)[C@H]3CC[C@]12C [Compound 26, R = BEEOOUUUUWWAYWPPVA-CONH2] ({Pentanoyl(5-NH-cholesteryl)-βAla}-EE[PEG3][PEG3][Aib][Aib][Aib][Aib]WWAYWPPVA-NH2)	14 (≈ 38.1 µg/mL)	100	8000							
CC(C)CCC[C@@H](C)[C@H]1CC[C@H]2[C@@H]3CC=C4C[C@@H](NCCCCC(=O)NCCC(=O)N[C@@H](CCC(=O)O)C(=O)N[C@@H](CCC(=O)O)C(=O)NCCOCCOCCOCCC(=O)NCCOCCOCCOCCC(=O)NC(C)(C)C(=O)NC(C)(C)C(=O)NC(C)(C)C(=O)NC(C)(C)C(=O)N[C@@H](Cc5ccc(O)cc5)C(=O)N[C@@H](Cc5ccc(O)cc5)C(=O)N[C@@H](C)C(=O)N[C@@H](Cc5ccc(O)cc5)C(=O)N[C@@H](Cc5ccc(O)cc5)C(=O)N5CCC[C@H]5C(=O)N5CCC[C@H]5C(=O)N[C@H](C(=O)N[C@H](C(N)=O)C(C)C)C(C)C)CC[C@]4(C)[C@H]3CC[C@]12C [Compound 28, R = BEEOOUUUUYYAYYPPVV-CONH2] ({Pentanoyl(5-NH-cholesteryl)-βAla}-EE[PEG3][PEG3][Aib][Aib][Aib][Aib]YYAYYPPVV-NH2)		60	3000	63 ± 28 (≈ 169 µg/mL)						
CC(C)CCC[C@@H](C)[C@H]1CC[C@H]2[C@@H]3CC=C4C[C@@H](NCCCCC(=O)NCCC(=O)N[C@@H](CCC(=O)O)C(=O)N[C@@H](CCC(=O)O)C(=O)NCCOCCOCCOCCC(=O)NCCOCCOCCOCCC(=O)NC(C)(C)C(=O)NC(C)(C)C(=O)NC(C)(C)C(=O)NC(C)(C)C(=O)N[C@@H](Cc5ccc(O)cc5)C(=O)N[C@@H](Cc5ccc(O)cc5)C(=O)N[C@@H](Cc5ccc(O)cc5)C(=O)N[C@@H](Cc5ccc(O)cc5)C(=O)N[C@@H](Cc5ccc(O)cc5)C(=O)N5CCC[C@H]5C(=O)N5CCC[C@H]5C(=O)N[C@H](C(=O)N[C@H](C(N)=O)C(C)C)C(C)C)CC[C@]4(C)[C@H]3CC[C@]12C [Compound 29, R = BEEOOUUUUYYYYYPPVV-CONH2] ({Pentanoyl(5-NH-cholesteryl)-βAla}-EE[PEG3][PEG3][Aib][Aib][Aib][Aib]YYYYYPPVV-NH2)		80	3000	90 ± 2 (≈ 249 µg/mL)						
C#CC[C@H](NC(=O)[C@H](CCC(=O)O)NC(=O)[C@H](CCC(=O)O)NC(=O)CCNC(=O)CCCCN[C@H]1CC[C@@]2(C)C(=CC[C@H]3[C@@H]4CC[C@H]([C@H](C)CCCC(C)C)[C@@]4(C)CC[C@@H]32)C1)C(=O)NCCOCCOCCOCCC(=O)NCCOCCOCCOCCC(=O)NC(C)(C)C(=O)NC(C)(C)C(=O)NC(C)(C)C(=O)NC(C)(C)C(=O)N[C@@H](Cc1ccc(O)cc1)C(=O)N[C@@H](Cc1ccc(O)cc1)C(=O)N[C@@H](C)C(=O)N[C@@H](Cc1ccc(O)cc1)C(=O)N[C@@H](Cc1ccc(O)cc1)C(=O)N1CCC[C@H]1C(=O)N1CCC[C@H]1C(=O)N[C@H](C(=O)N[C@H](C(N)=O)C(C)C)C(C)C [Compound 30, R = BEEZOOUUUUYYAYYPPVV-CONH2] ({Pentanoyl(5-NH-cholesteryl)-βAla}-EE[Pra][PEG3][PEG3][Aib][Aib][Aib][Aib]YYAYYPPVV-NH2)		30	2000	< 5	3 ± 1 (≈ 8.32 µg/mL)					
C#CC[C@H](NC(=O)[C@H](CCC(=O)O)NC(=O)[C@H](CCC(=O)O)NC(=O)CCNC(=O)CCCCN[C@H]1CC[C@@]2(C)C(=CC[C@H]3[C@@H]4CC[C@H]([C@H](C)CCCC(C)C)[C@@]4(C)CC[C@@H]32)C1)C(=O)NCCOCCOCCOCCC(=O)NCCOCCOCCOCCC(=O)NC(C)(C)C(=O)NC(C)(C)C(=O)NC(C)(C)C(=O)NC(C)(C)C(=O)N[C@@H](Cc1c[nH]c2ccccc12)C(=O)N[C@@H](Cc1c[nH]c2ccccc12)C(=O)N[C@@H](C)C(=O)N[C@@H](Cc1ccc(O)cc1)C(=O)N[C@@H](Cc1c[nH]c2ccccc12)C(=O)N1CCC[C@H]1C(=O)N1CCC[C@H]1C(=O)N[C@H](C(=O)N[C@@H](C)C(N)=O)C(C)C [Compound 31, R = BEEZOOUUUUWWAYWPPVA-CONH2] ({Pentanoyl(5-NH-cholesteryl)-βAla}-EE[Pra][PEG3][PEG3][Aib][Aib][Aib][Aib]WWAYWPPVA-NH2)		80	4000	< 5	5 ± 1 (≈ 14.1 µg/mL)					
CCCCCCCCCCCCCCCC(=O)NCCCCC(=O)NCCC(=O)N[C@@H](CCC(=O)O)C(=O)N[C@@H](CCC(=O)O)C(=O)NCCOCCOCCOCCC(=O)NCCOCCOCCOCCC(=O)NC(C)(C)C(=O)NC(C)(C)C(=O)NC(C)(C)C(=O)NC(C)(C)C(=O)N[C@@H](Cc1c[nH]c2ccccc12)C(=O)N[C@@H](Cc1c[nH]c2ccccc12)C(=O)N[C@@H](C)C(=O)N[C@@H](Cc1ccc(O)cc1)C(=O)N[C@@H](Cc1c[nH]c2ccccc12)C(=O)N1CCC[C@H]1C(=O)N1CCC[C@H]1C(=O)N[C@H](C(=O)N[C@@H](C)C(N)=O)C(C)C [Compound 32, R′ - BEEOOUUUUWWAYWPPVA-CONH2] ({Palmitoyl-Ava-βAla}-EE[PEG3][PEG3][Aib][Aib][Aib][Aib]WWAYWPPVA-NH2)	856 (≈ 2220 µg/mL)					sixtyfold more soluble	121	sevenfold less potent	700	16000
C#CC[C@H](NC(=O)CCNC(=O)CCNC(=O)O[C@H]1CC[C@@]2(C)C(=CC[C@H]3[C@@H]4CC[C@H]([C@H](C)CCCC(C)C)[C@@]4(C)CC[C@@H]32)C1)C(=O)NCCOCCOCCOCCC(=O)NCCOCCOCCOCCC(=O)NC(C)(C)C(=O)NC(C)(C)C(=O)NC(C)(C)C(=O)NC(C)(C)C(=O)N[C@@H](Cc1c[nH]c2ccccc12)C(=O)N[C@@H](Cc1c[nH]c2ccccc12)C(=O)N[C@@H](C)C(=O)N[C@@H](Cc1ccc(O)cc1)C(=O)N[C@@H](Cc1c[nH]c2ccccc12)C(=O)N1CCC[C@H]1C(=O)N1CCC[C@H]1C(=O)N[C@H](C(=O)N[C@@H](C)C(N)=O)C(C)C [Compound 33, R″ = BZOOUUUUWWAYWPPVA-CONH2] ({Cholesteryloxycarbonyl-βAla-βAla}-[Pra][PEG3][PEG3][Aib][Aib][Aib][Aib]WWAYWPPVA-NH2)	2 (≈ 5.14 µg/mL)	130	> 100000							
